From US9206188B2, “Substituted pyrrolo[2,3-b]pyridines as ITK and JAK inhibitors” (Arrien Pharmaceuticals LLC, priority 2013, dated 2015) come the findings set out here.

Read-outs that look alike come from different tables or passages of the source.

Test [1] has as its target ITK (Homo sapiens (Human), UniProt Q08881). The experiment in a line: ITK kinase assay (radiometric filter binding, 10 μM ATP). The format is biochemical. As for the experimental part: (§1) All additions were done on ice, followed by the addition of ATP mix. Wells were uniformly mixed using an Eppendorff plate shaker and incubated at 30° C. for 20 min, and stopped by the addition of 5 μL of 3% phosphoric acid. Volume was increased to 100 μL by adding 0.8% phosphoric acid which was then transferred to PC filter mats (Millipore), pre-equilibrated with 70% ethanol and water. Plates were washed thrice with 100 μL 0.8% phosphoric acid and dried for an hour at 60° C. 100 μL scintillation fluid was added into each well and reading taken in Perkin Elmer TOPCOUNT beta counter.
(§2) The reactions were carried out at 10 μM ATP for ITK, JAK3 and other TEC and Janus family of kinase.

The target in test [2] is JAK3 (Homo sapiens (Human), UniProt P52333). Put plainly: JAK3 kinase assay (radiometric filter binding, 10 μM ATP). The test is classed as biochemical. Here is the method:
as §1, §2

Setting [3] is: 10-dose IC50 mode, 10 μM ATP, read-out: ITK kinase inhibition.
[4] abbreviates: 10-dose IC50 mode, 10 μM ATP, read-out: JAK3 kinase inhibition.

Chain of ITK (Q08881 whole entry): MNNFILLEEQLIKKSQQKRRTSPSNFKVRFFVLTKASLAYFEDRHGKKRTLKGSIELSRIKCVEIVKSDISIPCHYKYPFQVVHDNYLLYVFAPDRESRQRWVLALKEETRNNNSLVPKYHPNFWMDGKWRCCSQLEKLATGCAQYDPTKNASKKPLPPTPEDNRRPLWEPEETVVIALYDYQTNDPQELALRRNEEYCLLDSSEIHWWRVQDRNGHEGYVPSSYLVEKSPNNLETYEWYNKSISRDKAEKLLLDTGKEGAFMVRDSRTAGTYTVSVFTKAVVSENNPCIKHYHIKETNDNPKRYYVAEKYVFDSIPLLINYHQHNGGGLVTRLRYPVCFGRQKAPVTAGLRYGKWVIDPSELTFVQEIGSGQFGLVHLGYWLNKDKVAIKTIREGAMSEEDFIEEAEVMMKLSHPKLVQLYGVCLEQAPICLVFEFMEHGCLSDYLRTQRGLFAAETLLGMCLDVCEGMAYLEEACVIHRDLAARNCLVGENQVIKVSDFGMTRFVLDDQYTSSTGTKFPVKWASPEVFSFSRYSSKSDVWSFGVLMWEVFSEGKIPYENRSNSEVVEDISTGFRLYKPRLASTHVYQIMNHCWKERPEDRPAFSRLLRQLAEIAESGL
Chain of JAK3 (P52333 whole entry): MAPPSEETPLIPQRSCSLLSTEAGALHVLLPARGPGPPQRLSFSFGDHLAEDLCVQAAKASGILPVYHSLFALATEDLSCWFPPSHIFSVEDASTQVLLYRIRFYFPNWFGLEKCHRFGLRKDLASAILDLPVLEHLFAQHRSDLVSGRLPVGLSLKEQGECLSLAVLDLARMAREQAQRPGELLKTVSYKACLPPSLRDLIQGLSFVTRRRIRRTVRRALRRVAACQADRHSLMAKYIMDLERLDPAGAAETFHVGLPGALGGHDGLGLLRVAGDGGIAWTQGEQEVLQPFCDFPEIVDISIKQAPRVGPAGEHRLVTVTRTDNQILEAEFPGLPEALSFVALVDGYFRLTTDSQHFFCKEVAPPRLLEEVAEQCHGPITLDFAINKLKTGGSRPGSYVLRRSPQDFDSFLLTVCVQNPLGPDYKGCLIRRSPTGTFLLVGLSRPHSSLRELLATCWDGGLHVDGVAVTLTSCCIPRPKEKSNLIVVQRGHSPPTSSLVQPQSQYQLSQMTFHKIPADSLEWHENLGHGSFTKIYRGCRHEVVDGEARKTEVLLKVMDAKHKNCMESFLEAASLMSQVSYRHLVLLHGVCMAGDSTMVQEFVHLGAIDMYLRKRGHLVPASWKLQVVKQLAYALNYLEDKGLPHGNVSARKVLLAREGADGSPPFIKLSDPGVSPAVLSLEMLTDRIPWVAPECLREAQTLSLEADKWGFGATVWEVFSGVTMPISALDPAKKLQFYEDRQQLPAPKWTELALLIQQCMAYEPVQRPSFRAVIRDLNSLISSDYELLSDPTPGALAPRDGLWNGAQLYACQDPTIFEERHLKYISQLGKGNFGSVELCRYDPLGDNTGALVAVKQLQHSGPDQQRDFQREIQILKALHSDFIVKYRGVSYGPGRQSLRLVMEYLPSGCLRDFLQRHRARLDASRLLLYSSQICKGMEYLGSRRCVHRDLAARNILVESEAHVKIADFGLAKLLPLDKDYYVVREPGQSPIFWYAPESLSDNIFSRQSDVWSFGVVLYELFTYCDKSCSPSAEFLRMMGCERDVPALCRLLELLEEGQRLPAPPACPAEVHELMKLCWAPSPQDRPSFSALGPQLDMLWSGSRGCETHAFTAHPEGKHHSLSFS

As for `C=CC(=O)Nc1ccccc1-c1cnc2[nH]cc(C)c2c1` [Example 17, N-(2-(3-methyl-1H-pyrrolo[2,3-b]pyridin-5-yl)phenyl)acrylamide], the IC50 in test [1] (setting [3]) and in test [2] (setting [4]) was more than 1000 nM throughout.

With `C=CC(=O)Nc1cc(F)cc(-c2cnc3[nH]cc(-c4cc(F)cc(F)c4OC)c3c2)c1C` [Example 168, N-(3-(3-(3,5-difluoro-2-methoxyphenyl)-1H-pyrrolo[2,3-b]pyridin-5-yl)-5-fluoro-2-methylphenyl)acrylamide], the IC50 in test [1] (setting [3]) and in test [2] (setting [4]) was less than 100 nM throughout. Regarding `C=CC(=O)Nc1cccc(-c2cnc3[nH]cc(-c4cc5ccc(C)cc5[nH]4)c3n2)c1` [Example 2, N-(3-(7-(6-methyl-1H-indol-2-yl)-5H-pyrrolo[2,3-b]pyrazin-2-yl)phenyl)acrylamide], the IC50 in test [1] (setting [3]) and in test [2] (setting [4]) was more than 100 nM throughout. In the case of `COc1c(F)cc(F)cc1-c1c[nH]c2ncc(-c3cccc(NC(=O)/C(C)=C/C(C)(C)C)c3)cc12` [Example 158, (E)-N-(3-(3-(3,5-difluoro-2-methoxyphenyl)-1H-pyrrolo[2,3-b]pyridin-5-yl)phenyl)-2,4,4-trimethylpent-2-enamide], the IC50 in test [1] (setting [3]) and in test [2] (setting [4]) was less than 100 nM each time. `C#CC(=O)Nc1cccc(-c2cnc3[nH]cc(C)c3c2)c1` [Example 70, N-(3-(3-methyl-1H-pyrrolo[2,3-b]pyridin-5-yl)phenyl)propiolamide]: the results for the IC50 in test [1] (setting [3]) and in test [2] (setting [4]) were more than 100 nM and less than 100 nM, respectively.

Regarding `C=CC(=O)N1CCCC1C(=O)Nc1cnc2[nH]ccc2c1` (stereo not drawn) [Example 69, 1-acryloyl-N-(1H-pyrrolo[2,3-b]pyridin-5-yl)pyrrolidine-2-carboxamide], the IC50 in test [1] (setting [3]) and in test [2] (setting [4]) was more than 100 nM throughout. For the compound `C=CC(=O)Nc1cccc(-c2cnc3[nH]ccc3c2)n1` [Example 57, N-(6-(1H-pyrrolo[2,3-b]pyridin-5-yl)pyridin-2-yl)acrylamide], the IC50 is more than 100 nM in test [1] (setting [3]) and less than 100 nM in test [2] (setting [4]). With `C#CC(=O)Nc1cc(-c2cnc3[nH]cc(Cl)c3c2)ccc1F` [Example 84, N-(5-(3-chloro-1H-pyrrolo[2,3-b]pyridin-5-yl)-2-fluorophenyl)propiolamide], the IC50 in test [1] (setting [3]) is more than 1000 nM; in test [2] (setting [4]), less than 100 nM.

With `C=CC(=O)Nc1cccc(-c2cnc3[nH]cc(-c4cccc(S(=O)(=O)N(C)C(C)(C)C)c4)c3n2)c1` [Example 33, N-(3-(7-(3-(N-(tert-butyl)-N-methylsulfamoyl)phenyl)-5H-pyrrolo[2,3-b]pyrazin-2-yl)phenyl)acrylamide], the IC50 in test [1] (setting [3]) and in test [2] (setting [4]) was less than 100 nM each time. Consider `COc1cc(F)c(C)cc1-c1c[nH]c2ncc(-c3cc(F)cc(NC(=O)/C(C)=C/C(C)(C)C)c3C)cc12` [Example 173, (E)-N-(5-fluoro-3-(3-(4-fluoro-2-methoxy-5-methylphenyl)-1H-pyrrolo[2,3-b]pyridin-5-yl)-2-methylphenyl)-2,4,4-trimethylpent-2-enamide], for which the IC50 in test [1] (setting [3]) and in test [2] (setting [4]) was less than 100 nM throughout. For `C=CC(=O)Nc1cc(-c2cnc3[nH]cc(Cl)c3c2)ccc1Cl` [Example 46, N-(2-chloro-5-(3-chloro-1H-pyrrolo[2,3-b]pyridin-5-yl)phenyl)acrylamide], the IC50 in test [1] (setting [3]) and in test [2] (setting [4]) was more than 1000 nM in each case. Take `Cc1cccc(-c2c[nH]c3ncc(-c4cccc(NC(=O)/C=C/CN(C)C)c4)cc23)c1F` [Example 145, (E)-4-(dimethylamino)-N-(3-(3-(2-fluoro-3-methylphenyl)-1H-pyrrolo[2,3-b]pyridin-5-yl)phenyl)but-2-enamide]: the IC50 in test [1] (setting [3]) and in test [2] (setting [4]) was more than 100 nM throughout. For `CN(C)C/C=C/C(=O)Nc1cccc(-c2cnc3[nH]cc(Cl)c3c2)c1` [Example 153, (E)-N-(3-(3-chloro-1H-pyrrolo[2,3-b]pyridin-5-yl)phenyl)-4-(dimethylamino)but-2-enamide], the IC50 in test [1] (setting [3]) is more than 100 nM; in test [2] (setting [4]) it was less than 100 nM. Regarding `C#CC(=O)Nc1cc(-c2cnc3[nH]cc(C)c3c2)ccc1F` [Example 92, N-(2-fluoro-5-(3-methyl-1H-pyrrolo[2,3-b]pyridin-5-yl)phenyl)propiolamide], the IC50 in test [1] (setting [3]) and in test [2] (setting [4]) was less than 100 nM each time. Turning to `C=CC(=O)Nc1cccc(-c2cnc3[nH]cc(-c4cc5ccc(C)cc5[nH]4)c3c2)c1` [Example 75, N-(3-(3-(6-methyl-1H-indol-2-yl)-1H-pyrrolo[2,3-b]pyridin-5-yl)phenyl)acrylamide], the IC50 in test [1] (setting [3]) is more than 1000 nM; in test [1] (read-out: biochemical IC50 against ITK), 100 to 1000 nM; in test [2] (setting [4]) it was less than 100 nM; in test [2] (read-out: biochemical IC50 against JAK3), 100 to 1000 nM.

Consider `Cc1n[nH]c2ncc(-c3cccc(NC(=O)/C=C/N(C)C)c3)cc12` [Example 48, (E)-3-(dimethylamino)-N-(3-(3-methyl-1H-pyrazolo[3,4-b]pyridin-5-yl)phenyl)acrylamide], for which the IC50 in test [1] (setting [3]) and in test [2] (setting [4]) was more than 100 nM in each case. On to `CC#CC(=O)Nc1cc(-c2cnc3[nH]ccc3c2)ccc1F` [Example 87, N-(2-fluoro-5-(1H-pyrrolo[2,3-b]pyridin-5-yl)phenyl)but-2-ynamide], for which the IC50 is more than 100 nM in test [1] (setting [3]) and less than 100 nM in test [2] (setting [4]). Consider `CN(C)/C=C/C(=O)Nc1cccc(-c2cnc3[nH]cc(Cl)c3c2)c1` [Example 44, (E)-N-(3-(3-chloro-1H-pyrrolo[2,3-b]pyridin-5-yl)phenyl)-3-(dimethylamino)acrylamide], for which, in test [1] (setting [3]), the IC50 is more than 1000 nM. Turning to `C=CC(=O)Nc1cc(-c2cnc3[nH]cc(-c4cc(F)cc(F)c4OC)c3c2)ccc1F` [Example 38, N-(5-(3-(3,5-difluoro-2-methoxyphenyl)-1H-pyrrolo[2,3-b]pyridin-5-yl)-2-fluorophenyl)acrylamide], the IC50 in test [1] (setting [3]) and in test [2] (setting [4]) was more than 100 nM in each case.

Take `C=CC(=O)Nc1ccc(F)c(-c2cnc3[nH]cc(-c4cc(F)cc(F)c4OC)c3c2)c1` [Example 40, N-(3-(3-(3,5-difluoro-2-methoxyphenyl)-1H-pyrrolo[2,3-b]pyridin-5-yl)-4-fluorophenyl)acrylamide]: the IC50 in test [1] (setting [3]) and in test [2] (setting [4]) was more than 100 nM throughout. On to `C=CC(=O)Nc1ccc(-c2cnc3[nH]cc(Cl)c3c2)cc1F` [Example 62, -(4-(3-chloro-1H-pyrrolo[2,3-b]pyridin-5-yl)-2-fluorophenyl)acrylamide], for which the figures for the IC50 in test [1] (setting [3]) and in test [2] (setting [4]) were more than 1000 nM and more than 100 nM, respectively. As for `C=CC(=O)Nc1cc(-c2cnc3[nH]ccc3c2)ccc1F` [Example 59, N-(2-fluoro-5-(1H-pyrrolo[2,3-b]pyridin-5-yl)phenyl)acrylamide], the IC50 in test [1] (setting [3]) and in test [2] (setting [4]) was less than 100 nM throughout. In the case of `CC#CC(=O)Nc1cc(-c2cnc3[nH]cc(Cl)c3c2)ccc1F` [Example 88, N-(5-(3-chloro-1H-pyrrolo[2,3-b]pyridin-5-yl)-2-fluorophenyl)but-2-ynamide], the IC50 in test [2] (setting [4]) is less than 100 nM.

Regarding `C=CC(=O)Nc1cc(-c2cnc3[nH]cc(Cl)c3c2)cc(F)c1F` [Example 64, N-(5-(3-chloro-1H-pyrrolo[2,3-b]pyridin-5-yl)-2,3-difluorophenyl)acrylamide], the IC50 in test [2] (setting [4]) was more than 100 nM. As to “(E)-N-(2-chloro-5-(3-methyl-1H- pyrrolo[2,3-b]pyridin-5- yl)phenyl)pent-1-enamide [Example 14]”, the IC50 in test [2] (setting [4]) was more than 100 nM.
